pIC50: −log10 of the molar value.
Tests used:
Format in all cases: biochemical
[1] = target: T1, LRRK2(G2019S mutation, GST-LRRK2(amino acids 970-2527)) (Homo sapiens, UniProt Q5S007, G2019S); experiment: LRRK2 Km ATP LanthaScreen Assay; conditions: read-out: LRRK2 IC50
T1 construct: GST-LRRK2(amino acids 970-2527); GST (N); purchased Life Technologies Corporation
Outline: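 IC50 values are means of several runs in the Km-ATP LanthaScreen format, analysed by curve fitting of the LanthaScreen read-out.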

[2] = target: T1, LRRK2(G2019S mutation, GST-LRRK2(amino acids 970-2527)); experiment: LRRK2 5 mM ATP LanthaScreen Assay; conditions: mean IC50 of several tests
Procedure: The data presented for the 5 mM and Km ATP LanthaScreen™ Assay represents mean IC50 values based on several test results and may have reasonable. deviations depending on the specific conditions and reagents used. Reagents for the LRRK2 5 mM and Km ATP LanthaScreen™ Assay were purchased from Life Technologies Corporation.
LRRK2 5 mM ATP LanthaScreen™ Assay • a) 400 nl of a 1:2.15 serial dilution of test compound (98 μM top assay concentration) is spotted via Labcyte Echo to certain wells in a 384 well black, untreated plate. […] Results are analysed using Assay Data Analyzer.

[3] = target: T2, kinases (Table B) (Homo sapiens, UniProt Q13627); experiment: Kinase selectivity, Z'-LYTE or Adapta assay platforms (Life Technologies); conditions: DYRK1A; Z-LYTE; test conc 0.100 μM; read-out: percent inhibition DYRK1A
T2 construct: purchased Life Technologies Corporation

[4] = tested on: kinases (Table B); experiment: as above; conditions: test conc 0.100 μM
[5] = target: T3, kinases (Table B) (Homo sapiens, UniProt Q96GD4); experiment: as above; conditions: AURKB (Aurora B); Z-LYTE; test conc 0.100 μM; read-out: percent inhibition AURKB (Aurora B)
T3 construct: purchased Life Technologies Corporation

[6] = target: T4, kinases (Table B) (Homo sapiens, UniProt P28482); experiment: as above; conditions: MAPK1 (ERK2); Z-LYTE; test conc 0.100 μM; read-out: percent inhibition MAPK1 (ERK2)
T4 construct: purchased Life Technologies Corporation

[7] = Km ATP LanthaScreen, mean IC50 of several tests
[8] = Km ATP LanthaScreen Assay, LRRK2 G2019S, mean IC50 values

T1 sequence (Q5S007 970-2527 G2019S): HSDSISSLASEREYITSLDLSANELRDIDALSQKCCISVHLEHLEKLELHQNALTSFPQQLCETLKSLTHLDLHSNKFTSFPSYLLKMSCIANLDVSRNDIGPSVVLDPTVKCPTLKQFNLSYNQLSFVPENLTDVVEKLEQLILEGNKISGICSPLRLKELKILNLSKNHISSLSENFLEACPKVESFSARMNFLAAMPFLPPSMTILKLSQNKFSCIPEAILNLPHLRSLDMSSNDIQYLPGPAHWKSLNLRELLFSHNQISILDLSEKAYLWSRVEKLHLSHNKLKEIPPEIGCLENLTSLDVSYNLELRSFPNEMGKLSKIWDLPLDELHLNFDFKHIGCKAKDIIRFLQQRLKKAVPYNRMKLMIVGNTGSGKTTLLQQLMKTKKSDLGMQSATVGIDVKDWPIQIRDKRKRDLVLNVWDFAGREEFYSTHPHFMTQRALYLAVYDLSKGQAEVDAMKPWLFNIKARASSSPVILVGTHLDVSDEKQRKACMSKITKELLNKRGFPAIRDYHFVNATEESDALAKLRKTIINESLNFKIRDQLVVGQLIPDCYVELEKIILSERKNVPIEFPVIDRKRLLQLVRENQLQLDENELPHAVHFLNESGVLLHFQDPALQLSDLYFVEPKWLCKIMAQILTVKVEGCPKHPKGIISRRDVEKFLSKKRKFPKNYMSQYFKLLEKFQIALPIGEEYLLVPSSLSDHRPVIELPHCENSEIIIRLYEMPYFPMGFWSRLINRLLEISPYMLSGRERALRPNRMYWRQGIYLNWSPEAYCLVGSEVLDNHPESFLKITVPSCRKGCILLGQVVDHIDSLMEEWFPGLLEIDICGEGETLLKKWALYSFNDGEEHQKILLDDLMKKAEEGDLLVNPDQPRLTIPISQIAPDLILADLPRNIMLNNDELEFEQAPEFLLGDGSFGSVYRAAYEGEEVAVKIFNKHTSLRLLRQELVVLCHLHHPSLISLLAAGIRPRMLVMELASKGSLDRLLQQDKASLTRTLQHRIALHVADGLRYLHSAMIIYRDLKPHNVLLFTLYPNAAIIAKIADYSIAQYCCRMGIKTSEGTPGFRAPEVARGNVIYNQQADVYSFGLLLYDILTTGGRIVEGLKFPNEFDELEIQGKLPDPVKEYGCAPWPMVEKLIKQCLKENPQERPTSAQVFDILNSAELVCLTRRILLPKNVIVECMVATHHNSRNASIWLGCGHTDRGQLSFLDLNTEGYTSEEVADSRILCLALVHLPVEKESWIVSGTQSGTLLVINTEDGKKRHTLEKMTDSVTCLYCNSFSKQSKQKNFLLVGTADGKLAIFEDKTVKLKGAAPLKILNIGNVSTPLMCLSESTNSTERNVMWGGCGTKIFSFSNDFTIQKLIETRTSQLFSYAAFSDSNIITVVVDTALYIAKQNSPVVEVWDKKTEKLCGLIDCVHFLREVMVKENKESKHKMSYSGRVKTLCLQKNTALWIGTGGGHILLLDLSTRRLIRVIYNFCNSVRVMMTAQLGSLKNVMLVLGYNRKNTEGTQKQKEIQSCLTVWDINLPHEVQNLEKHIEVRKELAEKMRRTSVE
T3 sequence (Q96GD4 whole entry): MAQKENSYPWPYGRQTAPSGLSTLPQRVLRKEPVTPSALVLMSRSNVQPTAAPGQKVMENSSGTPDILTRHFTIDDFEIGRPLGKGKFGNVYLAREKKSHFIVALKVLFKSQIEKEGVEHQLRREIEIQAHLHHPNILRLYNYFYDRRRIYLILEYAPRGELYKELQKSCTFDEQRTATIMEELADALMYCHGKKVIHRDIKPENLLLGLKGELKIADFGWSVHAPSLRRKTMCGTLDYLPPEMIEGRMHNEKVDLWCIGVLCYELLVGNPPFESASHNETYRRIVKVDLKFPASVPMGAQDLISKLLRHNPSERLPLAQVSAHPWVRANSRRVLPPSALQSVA
T4 sequence (P28482 whole entry): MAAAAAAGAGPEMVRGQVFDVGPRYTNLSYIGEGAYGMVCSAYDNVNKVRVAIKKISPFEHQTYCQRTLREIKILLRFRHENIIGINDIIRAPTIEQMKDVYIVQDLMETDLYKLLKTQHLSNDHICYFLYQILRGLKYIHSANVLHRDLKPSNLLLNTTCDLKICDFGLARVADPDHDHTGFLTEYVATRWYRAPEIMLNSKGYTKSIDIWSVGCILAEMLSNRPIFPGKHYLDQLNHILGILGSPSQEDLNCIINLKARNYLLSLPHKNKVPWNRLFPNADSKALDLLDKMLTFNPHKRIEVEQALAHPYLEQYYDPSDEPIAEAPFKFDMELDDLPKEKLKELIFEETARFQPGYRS

| SMILES | pIC50 [1, 7] | also measured |
| --- | --- | --- |
| Cn1cc(-c2ccc3[nH]nc(-c4ccnc(N5CC(F)C5)c4)c3c2)cn1 [Ex 376] | > 9.22 | pIC50 [2]: 7.64 |
| Oc1cc(-c2ccc3[nH]nc(-c4ccnc(N5CCC(O)CC5)c4)c3c2)ccn1 [Example 121] |  | pIC50 [1, 8]: 8.85; pIC50 [2]: 7.80 |
| CC(C)Oc1ccc2[nH]nc(-c3ccnc(N4CCC(O)CC4)c3)c2c1 [Example 285] | 8.42 | pIC50 [2]: 7.82 |
| CC(C)Oc1ccc2[nH]nc(-c3ccnc(N4CCNC(=O)C4)c3)c2c1 [Example 311] | > 9.22 | pIC50 [2]: 7.85 |
| Cc1c(-c2ccc3[nH]nc(-c4ccnc(N5CCOCC5)c4)c3c2)cnn1C [Example 316] | 8.68 | pIC50 [2]: 8.10 |
| Cn1cc(-c2ccc3[nH]nc(-c4ccnc(N5CCOCC5)c4)c3c2)cn1 [Example 321] | > 9.22 | pIC50 [2]: 7.92 |
| Cc1cnc(-c2ccc3[nH]nc(-c4ccnc(N5CCOCC5)c4)c3c2)nc1 [Example 338] | 8.05 |  |
| COc1cnc(-c2ccc3[nH]nc(-c4ccnc(N5CCOCC5)c4)c3c2)nc1 [Example 339] | 7.66 |  |
| Cn1cc(-c2ccc3[nH]nc(-c4ccnc(N5CCOCC5)c4)c3c2)nn1 [Example 340] | 8.96 |  |
| Cn1cnc(-c2ccc3[nH]nc(-c4ccnc(N5CCOCC5)c4)c3c2)c1 [Example 343] | 8.31 |  |
| c1cc(-c2n[nH]c3ccc(-c4cn[nH]c4)cc23)cc(N2CCOCC2)n1 [Example 344] | > 9.22 |  |
| Cn1nccc1-c1ccc2[nH]nc(-c3ccnc(N4CCOCC4)c3)c2c1 [Example 345] | 7.74 |  |
| c1cc(-c2ccc3[nH]nc(-c4ccnc(N5CCOCC5)c4)c3c2)[nH]n1 [Example 346] | > 9.22 |  |
| OCc1cc2c(-c3ccnc(N4CCOCC4)c3)n[nH]c2cc1F [Example 347] | 7.42 |  |
| CC(C)(O)COc1ccc2[nH]nc(-c3ccnc(N4CCOCC4)c3)c2c1 [Example 348] | 7.85 |  |
| OCCc1cc2c(-c3ccnc(N4CCOCC4)c3)n[nH]c2cc1F [Example 349] | 7.57 |  |
| CC(O)Cc1cc2c(-c3ccnc(N4CCOCC4)c3)n[nH]c2cc1F (centres unmarked) [Example 350] | 7.12 |  |
| Fc1cc2[nH]nc(-c3ccnc(N4CCOCC4)c3)c2cc1-c1ccn[nH]1 [Example 351] | 8.96 |  |
| CCOc1ccc2[nH]nc(-c3ccnc(NCCOC)c3)c2c1 [Example 354] | 8.21 |  |
| CCOc1ccc2[nH]nc(-c3ccnc(NCCO)c3)c2c1 [Example 355] | 8.00 |  |
| CCOc1ccc2[nH]nc(-c3ccnc(N[C@@H](C)COC)c3)c2c1 [Example 356] | 8.00 |  |

| SMILES | pIC50 [1, 7] | also measured |
| --- | --- | --- |
| CCOc1ccc2[nH]nc(-c3ccnc(N[C@H](C)CO)c3)c2c1 [Example 357] | 8.26 |  |
| CCOc1ccc2[nH]nc(-c3ccnc(N[C@@H](C)CO)c3)c2c1 [Example 358] | 7.80 |  |
| CCOc1ccc2[nH]nc(-c3ccnc(N4CC(OC)C4)c3)c2c1 [Example 359] | 7.82 |  |
| CCOc1ccc2[nH]nc(-c3ccnc(N4CCN(S(C)(=O)=O)CC4)c3)c2c1 [Example 360] | > 9.22 |  |
| CCOc1ccc2[nH]nc(-c3ccnc(N4CC(O)(C(F)(F)F)C4)c3)c2c1 [Example 361] | > 9.22 |  |
| CCOc1ccc2[nH]nc(-c3ccnc(N4CCN(C)CC4)c3)c2c1 [Example 362] | 8.00 |  |
| OCCOc1ccc2[nH]nc(-c3ccnc(N4CCOCC4)c3)c2c1 [Example 363] | 8.03 |  |
| CC(C)Oc1cc2c(-c3ccnc(N4CCOCC4)c3)n[nH]c2cc1F [Example 364] | 8.72 |  |
| COc1ccncc1-c1ccc2[nH]nc(-c3ccnc(N4CCOCC4=O)c3)c2c1 [Example 365] | 7.77 |  |
| COc1ccnc(F)c1-c1ccc2[nH]nc(-c3ccnc(N4CCN(S(C)(=O)=O)CC4)c3)c2c1 [Example 366] | > 9.22 |  |
| COc1ccnc(F)c1-c1ccc2[nH]nc(-c3ccnc(N4CCN(C(C)=O)CC4)c3)c2c1 [Example 367] | > 9.22 |  |
| COCCOc1ccc2[nH]nc(-c3ccnc(N4CCN(C)C(=O)C4)c3)c2c1 [Example 368] | 7.52 |  |
| CS(=O)(=O)c1ccc2[nH]nc(-c3ccnc(N4CCOCC4)c3)c2c1 [Example 369] | 6.96 |  |
| O=S(=O)(c1ccc2[nH]nc(-c3ccnc(N4CCOCC4)c3)c2c1)C1CC1 [Example 370] | 7.74 |  |
| CCS(=O)(=O)c1ccc2[nH]nc(-c3ccnc(N4CCOCC4)c3)c2c1 [Example 371] | 7.32 |  |
| CS(=O)(=O)Cc1cc2c(-c3ccnc(N4CCOCC4)c3)n[nH]c2cc1F [Example 372] | 5.92 |  |
| c1cc(-c2n[nH]c3ccc(OCC4CC4)cc23)cc(N2CCOCC2)n1 [Example 373] | 7.08 |  |
| FC(F)(F)Oc1ccc2[nH]nc(-c3ccnc(N4CCOCC4)c3)c2c1 [Example 374] | 7.55 |  |
| Cn1cc(-c2ccc3[nH]nc(-c4ccnc(N5CC(O)C5)c4)c3c2)cn1 [Example 375] | > 9.22 |  |
| COCCOc1ccc2[nH]nc(-c3ccnc(N4CCOCC4)c3)c2c1 [Example 377] | 7.15 |  |
| CC(C)Oc1ccc2[nH]nc(-c3ccnc(N4CCOC5(CC5)C4)c3)c2c1 [Example 378] | 8.12 |  |

| SMILES | pIC50 [1, 7] | also measured |
| --- | --- | --- |
| Cn1cc(-c2ccc3[nH]nc(-c4ccnc(N5CCOC6(CC6)C5)c4)c3c2)cn1 [Example 379] | 8.38 |  |
| Cn1cc(-c2ccc3[nH]nc(-c4ccnc(N5CC6CCC(C5)O6)c4)c3c2)cn1 [Example 380] | 8.72 |  |
| CC(C)Oc1ccc2[nH]nc(-c3ccnc(N4CCC(CCN)CC4)c3)c2c1 [Example 382] | 8.17 |  |
| CC(C)Oc1ccc2[nH]nc(-c3ccnc(N4CCN(C)CC4)c3)c2c1 [Example 383] | 9.12 | pIC50 [2]: 7.66; inhibition at 0.1 µM [3]: 8%; percent inhibition CDK1/cyclin B ([4]; CDK1/cyclin B, Z-LYTE): 5%; percent inhibition CLK2 ([4]; CLK2, Z-LYTE): 26%; percent inhibition IRAK1 ([4]; IRAK1, Adapta): 2%; percent inhibition JAK3 ([4]; JAK3, Z-LYTE): 7%; inhibition at 0.1 µM [5]: 8%; inhibition at 0.1 µM [6]: 10% |
| CC(C)Oc1ccc2[nH]nc(-c3ccnc(N4CCN(C)C(C)C4)c3)c2c1 (centres unmarked) [Example 384] | 8.66 |  |
| CC(C)Oc1ccc2[nH]nc(-c3ccnc(N4CCN(S(C)(=O)=O)C(C)C4)c3)c2c1 (centres unmarked) [Example 385] | 8.66 |  |
| CC(C)Oc1ccc2[nH]nc(-c3ccnc(N4CCN(C(=O)C5CC5)C(C)C4)c3)c2c1 (centres unmarked) [Example 386] | 8.55 |  |
| c1cc(-c2n[nH]c3ccc(C4CC4)cc23)cc(N2CCOCC2)n1 [Example 387] | 8.22 |  |
| COc1nccnc1-c1ccc2[nH]nc(-c3ccnc(N4CCOCC4)c3)c2c1 [Example 388] | 7.42 |  |
| Oc1nccnc1-c1ccc2[nH]nc(-c3ccnc(N4CCOCC4)c3)c2c1 [Example 389] | > 9.22 |  |
| Fc1ccc2[nH]nc(-c3ccnc(N4CCOCC4)c3)c2c1 [Example 391] | 7.21 |  |
| Fc1ccc2c(-c3ccnc(N4CCOCC4)c3)n[nH]c2c1 [Example 392] | 7.49 |  |
| COC(=O)c1ccc2[nH]nc(-c3ccnc(N4CCOCC4)c3)c2c1 [Example 393] | 7.82 |  |
| c1cc(-c2n[nH]c3cc4c(cc23)OCCO4)cc(N2CCOCC2)n1 [Example 394] | 7.92 |  |
| CC(C)Oc1ccc2[nH]nc(-c3ccnc(NS(C)(=O)=O)c3)c2c1 [Example 395] | 7.70 |  |
| FC(F)n1cc(-c2ccc3[nH]nc(-c4ccnc(N5CCOCC5)c4)c3c2)cn1 [Example 396] | 8.55 |  |
| Cc1cc2[nH]nc(-c3ccnc(N4CCOCC4)c3)c2cc1OC(C)C [Example 397] | 6.78 |  |
| Oc1ccc2[nH]nc(-c3ccnc(N4C5CCC4COC5)c3)c2c1 [Example 398] | 7.16 |  |
| c1cc(-c2ccc3[nH]nc(-c4ccnc(N5CCOCC5)c4)c3c2)cc(N2CCOCC2)n1 [Example 399] | 7.13 |  |
| [2H]C1([2H])OC([2H])([2H])C([2H])([2H])N(c2cc(-c3n[nH]c4ccccc34)ccn2)C1([2H])[2H] [Example 401] |  | pIC50 [1, 8]: 7.57 |
| c1ccc2c(-c3ccnc(N4CC5CCC(C4)O5)c3)n[nH]c2c1 [Example 402] |  | pIC50 [1, 8]: 7.57 |

— patent US9440952B2, “Compounds inhibiting leucine-rich repeat kinase enzyme activity” (Merck Sharp & Dohme Corp., priority 2013, dated 2016)
